In article PMC3920720, “Triterpenes and Steroids from Euphorbia denticulata Lam. With Anti-Herpes Symplex Virus Activity” (Iranian Journal of Pharmaceutical Research : IJPR, 2013):
≈ marks a conversion by molar mass, not a printed value. Read-outs that look alike come from different tables or passages of the source.

Assays:
[1] = Cytotoxicity assay (MTS) on Vero cells; type: cell-based, African green monkey; settings: African green monkey
Procedure: (§1) For cytotoxicity and antiviral assays cells were grown in Dulbeccoʼs Modified Eagleʼs growth Medium ( DMEM; Sigma, USA) supplemented with 2% of fetal bovine serum (FBS; Gibco, Germany), 100 μg/mL of streptomycin, 100 UI/mL of penicillin and 0.25 μg/mL amphotericin B ( Gibco, Germany) and 0.14% (v/v) sodium bicarbonate. All the cells were cultured at 37°C in a humidified atmosphere supplied with 5% CO2.
(§2) The Vero cells were seeded onto a 96-well plate at a concentration of 3.5×10^5 Vero cells per mL and a volume of 100 μL per well. Following 24 h incubation at 37 °C, a confluent cell monolayer was confirmed and cell media was removed. Test compounds were serially diluted with the culture medium supplemented with 2% serum to reach the different concentrations. Negative control dilution of DMSO at 0.1 % was also included. An aliquot of 100 μL/well of each diluted compound or DMSO was added to the plates in triplicate. After incubation at 37 °C with 5% CO2 for 3 days, MTS (Cell Titer 96; Promega, USA) was added to each well with a volume of 20 μL. The trays were further incubated for 2 h to allow MTS production. The absorbances were determined with an ELISA reader (Stata Fax 2100, USA) at a test wavelength of 490 nm. Data were calculated as the percentage of inhibition using the following formula: inhibition % =[100 – ( At/ As) × 100]%. At and As refer to the absorbances of the test substances and the solvent control, respectively. CC50 values, defined as the concentration of 50% cellular cytotoxicity (CC50) of test compounds ([7], [8]).

[2] = tested on: HSV-1; test: Antiviral assay using MTS method (HSV-1 infected Vero cells); type: cell-based, Herpes simplex virus type 1 (HSV-1, strain KOS); settings: for Selectivity index (SI) = CC50/EC50: HSV-1, CC50 on Vero cells / EC50; for EC50: read-out: EC50 ±SEM (concentration producing 50% inhibition of virus induced cytopathic effects)
[3] = tested on: HSV-1; test: Time-course anti-virus analysis (MTS, addition pre-, co- or post-infection); type: cell-based, Herpes simplex virus type 1 (HSV-1, strain KOS); settings: post-infection; 1, 10, 100 μg/mL; added 1 h before to 24 h after infection; MTS after 3 days
Procedure: Different non-cytotoxic concentrations (≤ CC50 values) of test compounds were added to culture cells in triplicate at different times pre-infection or post-infection. HSV-1(10 TCID50 per well) was inoculated onto confluent monolayers of Vero cells for 2 h. After 3 days, MTS test and antiviral activity were carried out as previously described ([3]).
Inhibition was evaluated by MTS assay after 3 days of infection and expressed as percentage inhibition.
Figure 3 Inhibitory effect of test compounds at different concentrations (1, 10, 100 μg/mL) at various times pre-infection , co-infection and post-infection of herpesvirus (HSV-1) to Vero cells. a) betulin, and b) (3β,23E)-Cycloarta-23-ene-3,25-diol were added with the HSV-1 infected Vero cells at various times period like pre-infection (− 1 h), co-infection (0 h) or post-infection( 2-24 h). After 3 days of incubation at 37°C, inhibition was evaluated by MTS assay and expressed as the inhibition percentage. Each point represents the mean of three independent experiments

[4] = tested on: Vero cells; test: Cytotoxicity assay (MTS) on Vero cells; type: cell-based, African green monkey; settings: Vero cells, MTS, 3 days incubation, n=3
Procedure: as §1, §2

[5] = CC50 ±SEM (50% cytotoxic concentration on vero cells)
[6] = Human alphaherpesvirus 1, Vero, 72 h

C[C@H](C/C=C/C(C)(C)O)[C@H]1CC[C@@]2(C)C3CCC4C(C)(C)[C@@H](O)CC[C@@]45C[C@@]35CC[C@]12C (stereo partly drawn) [(3β,23E)-Cycloarta-23-ene-3,25-diol, Cycloart-23E-ene-3β,25-diol]
CC50 at 3 days [1, 5]: 1089.2 ± 0.25 µg/mL (≈ 2460 µM) | Selectivity index (SI) = CC50/EC50 [2]: 12.57 | EC50 [2, 6]: 86.63 ± 0.03 µg/mL (≈ 196 µM) | Time of compound addition giving the highest inhibition against HSV-1 infection [3]: ≤ 2.0 h

Nc1nc2c(ncn2COCCO)c(=O)[nH]1 [Acyclovir, reference compound]
CC50 at 3 days [1, 5]: 128 ± 0.215 µg/mL (≈ 568 µM) | Selectivity index (SI) = CC50/EC50 [2]: 42.66 | EC50 ([2]; Human alphaherpesvirus 1, 72 h, HSV-1 in Vero cells, MTS, 3 days, three separate experiments): 3 µg/mL (≈ 13.3 µM)

C=C(C)[C@@H]1CC[C@]2(CO)CC[C@]3(C)[C@H](CC[C@@H]4[C@@]5(C)CC[C@H](O)C(C)(C)[C@@H]5CC[C@]43C)[C@@H]12 [Betulin, lup-20(29)-ene-3β,28-diol]
CC50 at 3 days ([1]; Vero cells, MTS, 3 days incubation, n=3, read-out: CC50 ±SEM (50% cytotoxic concentration on vero cells)): 660.72 ± 0.072 µg/mL (≈ 1490 µM) | CC50 ±SEM (50% cytotoxic concentration on vero cells) [4]: 660.72 ± 0.072 µg/mL (≈ 1490 µM) | Selectivity index (SI) = CC50/EC50 [2]: 7.83 | Selectivity index (SI) = CC50/EC50 ([2]; listed as betulin): 7.831 | EC50 [2, 6]: 84.37 ± 0.018 µg/mL (≈ 191 µM) | Time of compound addition giving the highest inhibition against HSV-1 infection [3]: ≤ 2.0 h
